FAM = FAM: 5(6)-carboxyfluorescein, a fluorescent dye
Legend:
HeLa cells [1] = experiment: Intracellular localization by confocal laser scanning microscopy (Test 2); assay type: cell-based, human; details: 5 μM, 20 hours, methanol-fixed, DAPI/FAM merged images
Description: In this test, localization of Samples 1 to 5 in HeLa cells was analyzed. HeLa cells were seeded on collagen-coated 8-well slides at about 2×10^4 cells/well, and cultured overnight in the presence of 5% CO2 at 37° C. A 10% FBS-containing DMEM was used as the cell culture solution.
Then, the supernatant (culture solution) was removed, ice-cooled PBS was added, and washing on ice was performed three times. Then, ice-cooled methanol was added, the sample was left at −20° C. for 10 minutes, and the cells were immobilized. Then, methanol was removed, and washing was then performed three times with ice-cooled PBS. Then, a DAPI-containing encapsulant (commercially available from ThemoFisher Scientific) and a cover glass were used for encapsulation and fluorescence observation was performed under a confocal laser scanning microscope. […] Here, all FIGS. 2A to 2E show images in which fluorescent images of DAPI and FAM were merged.

HeLa cells [2] = experiment: Evaluation of cell membrane permeability by flow cytometry (Test 1); details: 10 μM, 20 hours incubation
Description: HeLa cells were cultured in a DMEM (Dulbecco's modified Eagle's medium (Cat No. 043-30085 commercially available from FUJIFILM Wako Pure Chemical Corporation)) containing 10% FBS (fetal bovine serum), which is a general culture medium.
HeLa cells adhered to a culture plate were washed with PBS and a 0.25% trypsin/EDTA solution was then added, and the cells were incubated at 37° C. for 3 minutes. After the incubation, a 10% FBS-containing DMEM was added, trypsin was inactivated, and centrifugation was then performed at 150×g for 5 minutes to precipitate cells. […]
For the obtained cells (cell pellets), the cell permeability of Sample 1 was analyzed using a flow cytometer. […]
Using the flow cytometer, gating was performed based on forward scatter (FSC) and side scatter (SSC), a gate was set for a cell population to be analyzed, and the fluorescent intensity was measured for the cell population within such a gate. […] For measurement of the fluorescent intensity, a fluorescence detector FL2 (optimal detection wavelength of about 543 nm) of the flow cytometer that can detect a fluorescence wavelength of FAM was used. The measurement results were analyzed using commercially available analysis software “FlowJo (registered trademark)” (commercially available from TreeStar) to obtain a mean fluorescent intensity (MFI) of the cell population to be measured.

[3] = Cytotoxicity examination by the inventors; assay type: cell-based
Description: In all of the amino acid sequences shown in SEQ ID NOs 1 to 4, 11 amino acid residues among 13 amino acid residues are composed of basic amino acids (arginine and lysine). […] On the other hand, in the carrier peptide fragment composed of any of the amino acid sequences shown in SEQ ID NOs 1 to 4, the inventors have confirmed through examination that, even if the concentration of the carrier peptide fragment is 100 μM, there is almost no cytotoxicity, and the cytotoxicity is much lower than that of R8. […] Although the details of the mechanism are not clear, in the carrier peptide fragment disclosed here, it is estimated that inclusion of a threonine residue and a leucine residue which are neutral amino acids at the 4th and 5th positions in addition to basic amino acids contributes to reduction of cytotoxicity.

Compound: Ac-KKRTLRKNDRKKR-FAM (Ac-KKRTLRKNDRKKR-{FAM}) [Example 5]
- fluorescence of FAM observed in the nucleolus (HeLa cells [1]): slightly observed in the nucleolus

Compound: 5(6)-carboxyfluorescein [Example 6]
- relative value of MFI (mean fluorescent intensity), MFI value of Example 6 set to 1 (HeLa cells [2]; flow cytometer FL2): 1

Compound: N=C(N)NCCC[C@H](NC(=O)[C@H](CCCNC(=N)N)NC(=O)[C@H](CCCNC(=N)N)NC(=O)[C@H](CCCNC(=N)N)NC(=O)[C@H](CCCNC(=N)N)NC(=O)[C@H](CCCNC(=N)N)NC(=O)[C@H](CCCNC(=N)N)NC(=O)[C@@H](N)CCCNC(=N)N)C(=O)O [Example R8, octaarginine]
- cytotoxicity [3]: relatively high

Compound: Ac-KKRTLRKKKRKKR-FAM (Ac-KKRTLRKKKRKKR-{FAM}) [Example 1]
- MFI value compared with the MFI value of Example 5 (HeLa cells [2]): more than three times as high

— patent US11927589B2, “Carrier peptide fragment for nucleolar localization and use thereof” (TOAGOSEI CO., LTD., priority 2021, dated 2024)
